From patent US9777015B2, “Useful thiophene derivatives in the treatment of diabetes” (METABRAIN RESEARCH, priority 2012, dated 2017) come the findings set out here.

For the assay, the system named is hepatocytes isolated from Wistar rat liver. Description: Test of inhibition of hepatic production of glucose (isolated hepatocytes, 3 h or 20 h incubation). The assay is classed as cell-based. As to conditions: 3 h incubation; for activity at 50 µM / activity at 100 µM: Rattus norvegicus, Hepatocyte, 3 h; for activity at 50 µM: read-out: HGP % of ctrl @ 50 μM; for activity at 100 µM: read-out: HGP % of ctrl @ 100 μM; for inhibition of hepatic production of glucose: with two doses. The protocol: The hepatocytes are isolated from Wistar rat liver having fasted for 24 h after perfusion of collagenase in the portal vein. The freshly isolated hepatocytes are sown in 6-well plates coated with collagen and containing an adhesion medium (Williams Medium). After adhesion, the medium is replaced with RPMI 1640 medium without any glucose, containing hydrocortisone (7.10^−5M) for a duration from 16 to 18 h. The next day, the glucose hepatic production test is conducted in a Krebs medium for 3 h. The basal conditions are cells incubated with only Krebs, the stimulated conditions are the cells placed in Krebs+lactate+pyruvate, the produced conditions are the cells exposed to chemical compounds in a Krebs/lactate/pyruvate medium. In the case when the compounds are dissolved in DMSO, all the conditions of the tests are met in the presence of a final concentration of 0.1% DMSO. The positive control of the test is the mercaptopicolinate known for its inhibitory action on hepatic production of glucose via the phosphoenolpyruvate carboxykinase. For short term treatments, the compounds are incubated for 3 h. For long term treatments, the compounds are incubated for 20 h at the moment when the hepatocytes are cultivated in RPMI and then added during the hepatic production test for 3 h. At the end of the 3 hours of incubation, the supernatant is recovered for measurement of glucose with a colorimetric method using glucose oxidase. The cells are lysed with a 0.1% NaOH aqueous solution in order to measure the amount of protein with the Lowry method. The results are expressed in mmols of glucose per mg of protein.

[1] abbreviates: hepatic glucose production, rat hepatocytes, compound at 50 μM.
[2] abbreviates: hepatic glucose production, rat hepatocytes, compound at 100 μM.

For the compound `COC(=O)Cc1cc(C(=O)c2cccc(Cl)c2)sc1-c1ccccc1` [compound 2, methyl 2-(5-(3-chlorobenzoyl)-2-phenylthiophen-3-yl)acetate], the activity at 50 µM under setting [1] worked out at 83%. For the same compound, the activity at 100 µM under setting [2] was determined as 62%.
The corresponding values for `COC(=O)Cc1cc(C(=O)c2cccc(OC)c2)sc1-c1ccccc1` [compound 4, methyl 2-(5-(3-methoxybenzoyl)-2-phenylthiophen-3-yl)acetate] are 77% and 75%.
Take `COC(=O)Cc1cc(C(=O)c2ccc(OC)cc2)sc1-c1ccccc1` [compound 5, methyl 2-(5-(4-methoxybenzoyl)-2-phenylthiophen-3-yl)acetate]: the activity at 50 µM under setting [1] is 68%. Besides, under setting [2], the activity at 100 µM is 50%.
With `COC(=O)Cc1cc(C(=O)C2CCCCC2)sc1-c1ccccc1` [compound 6, methyl 2-(5-(cyclohexanecarbonyl)-2-phenylthiophen-3-yl)acetate], the activity at 50 µM under setting [1] came to 72%. For the same compound, the activity at 100 µM under setting [2] worked out at 55%.
The corresponding values for `COC(=O)Cc1cc(C(=O)c2ccccc2)sc1-c1ccccc1` [compound 7, methyl 2-(5-benzoyl-2-phenyl-thiophen-3-yl)acetate] are 84% and 70%.
In the case of `CCOC(=O)Cc1cc(C(=O)c2cccc(OC)c2)sc1-c1ccc(Cl)cc1` [compound 12, ethyl 2-(2-(4-chlorophenyl)-5-(3-methoxybenzoyl)thiophen-3-yl)acetate], the activity at 50 µM under setting [1] is 70%. Besides, the activity at 100 µM under setting [2] turned out to be 53%.
For `CCOC(=O)Cc1cc(C(=O)Cc2ccccc2)sc1-c1ccc(Cl)cc1` [compound 16, ethyl 2-(2-(4-chlorophenyl)-5-(2-phenylacetyl)thiophen-3-yl)acetate], in that order: 69% and 63%.
Regarding `CCOC(=O)Cc1cc(C(=O)CCc2ccccc2)sc1-c1ccc(Cl)cc1` [compound 17, ethyl 2-(2-(4-chlorophenyl)-5-(3-phenylpropanoyl)thiophen-3-yl)acetate], the activity at 50 µM under setting [1] was 76%. Moreover, the activity at 100 µM under setting [2] was found to be 73%.
As to `CCOC(=O)Cc1cc(C(=O)c2ccccc2OC)sc1-c1ccc(OC)cc1` [compound 23, ethyl 2-(5-(2-methoxybenzoyl)-2-(4-methoxyphenyl)thiophen-3-yl)acetate], the activity at 50 µM under setting [1] was found to be 79%. The activity at 100 µM under setting [2] amounted to 73%.
The corresponding values for `CCOC(=O)Cc1cc(C(=O)c2cccc(F)c2)sc1-c1ccc(OC)cc1` [compound 26, ethyl 2-(5-(3-fluorobenzoyl)-2-(4-methoxyphenyl)thiophen-3-yl)acetate] are 86% and 71%.
The corresponding values for `CCOC(=O)Cc1cc(C(=O)CCc2ccccc2)sc1-c1ccc(OC)cc1` [compound 38, ethyl 2-(2-(4-methoxyphenyl)-5-(3-phenylpropanoyl)thiophen-3-yl)acetate] are 74% and 70%.
`COc1ccc(C(=O)c2cc(CC(=O)OC(C)C)c(-c3ccc(Cl)cc3)s2)cc1` [compound 43, isopropyl 2-(2-(4-chlorophenyl)-5-(4-methoxybenzoyl)thiophen-3-yl)acetate]: the activity at 50 µM under setting [1] came out at 82%. The activity at 100 µM under setting [2] was 73%.
As for `COc1ccc(C(=O)c2cc(CC(=O)O)c(-c3ccc(OC)cc3)s2)cc1` [compound 45, 2-(5-(4-methoxybenzoyl)-2-(4-methoxyphenyl)thiophen-3-yl)acetic acid], under setting [1], the activity at 50 µM was found to be 82%. The activity at 100 µM under setting [2] stood at 73%.
As for `COc1ccc(-c2sc(C(=O)C3CCCCC3)cc2CC(=O)O)cc1` [compound 46, 2-(5-(cyclohexanecarbonyl)-2-(4-methoxyphenyl)thiophen-3-yl)acetic acid], the activity at 50 µM under setting [1] stood at 74%. The activity at 100 µM under setting [2] is 55%.
Consider `O=C(O)Cc1cc(C(=O)c2ccco2)sc1-c1ccccc1` [compound 48, 2-(5-(furan-2-carbonyl)-2-phenyl-thiophen-3-yl)acetic acid], for which the activity at 50 µM under setting [1] turned out to be 91%. The activity at 100 µM under setting [2] stood at 73%.
As for `O=C(O)Cc1cc(C(=O)c2cccc(Cl)c2)sc1-c1ccccc1` [compound 49, 2-(5-(3-chlorobenzoyl)-2-phenyl-thiophen-3-yl)acetic acid], the “inhibition of hepatic production of glucose” value (“inhibition” for short) is “strongest inhibitions”. For the same compound, the activity at 50 µM under setting [1] was 57%. The activity at 100 µM under setting [2] came out at 38%.
Consider `COc1cccc(C(=O)c2cc(CC(=O)O)c(-c3ccccc3)s2)c1` [compound 50, 2-(5-(3-methoxybenzoyl)-2-phenylthiophen-3-yl)acetic acid], for which the activity at 50 µM under setting [1] came out at 97%. Moreover, under setting [2], the activity at 100 µM stood at 75%.
The corresponding values for `COc1ccc(C(=O)c2cc(CC(=O)O)c(-c3ccccc3)s2)cc1` [compound 51, 2-(5-(4-methoxybenzoyl)-2-phenylthiophen-3-yl)acetic acid] are 90% and 54%.
For `O=C(O)Cc1cc(C(=O)Cc2ccc(F)cc2)sc1-c1ccccc1` [compound 54, 2-(5-(2-(4-fluorophenyl)acetyl)-2-phenylthiophen-3-yl)acetic acid], under setting [1], the activity at 50 µM was determined as 85%. Besides, the activity at 100 µM under setting [2] amounted to 74%.
As to `O=C(O)Cc1cc(C(=O)c2ccc(Cl)c(Cl)c2)sc1-c1ccc(Cl)cc1` [compound 57, 2-(2-(4-chlorophenyl)-5-(3,4-dichlorobenzoyl)thiophen-3-yl)acetic acid], the activity at 50 µM under setting [1] came out at 77%. Besides, the activity at 100 µM under setting [2] was 51%.
As for `O=C(O)Cc1cc(C(=O)c2cccc(Cl)c2)sc1-c1ccc(Cl)cc1` [compound 58, 2-(5-(3-chlorobenzoyl)-2-(4-chlorophenyl)thiophen-3-yl)acetic acid], the “inhibition” value is “strongest inhibitions”. The activity at 50 µM under setting [1] stood at 51%. Also, the activity at 100 µM under setting [2] is 25%.
For `COc1cccc(C(=O)c2cc(CC(=O)O)c(-c3ccc(Cl)cc3)s2)c1` [compound 59, 2-(2-(4-chlorophenyl)-5-(3-methoxybenzoyl)thiophen-3-yl) acetic acid], under setting [1], the activity at 50 µM amounted to 67%. Under setting [2], the activity at 100 µM was 35%.
On to `COc1ccc(C(=O)c2cc(CC(=O)O)c(-c3ccc(Cl)cc3)s2)cc1` [compound 60, 2-(2-(4-chlorophenyl)-5-(4-methoxybenzoyl)thiophen-3-yl) acetic acid], for which the activity at 50 µM under setting [1] is 74%. The activity at 100 µM under setting [2] worked out at 53%.
For `O=C(O)Cc1cc(C(=O)C2CCCCC2)sc1-c1ccc(Cl)cc1` [compound 61, 2-(2-(4-chlorophenyl)-5-(cyclohexanecarbonyl)thiophen-3-yl)acetic acid], the activity at 50 µM under setting [1] amounted to 78%. The activity at 100 µM under setting [2] stood at 66%.
As to `O=C(O)Cc1cc(C(=O)CCc2ccccc2)sc1-c1ccc(Cl)cc1` [compound 63, 2-(2-(4-chlorophenyl)-5-(3-phenylpropanoyl)thiophen-3-yl) acetic acid], the “inhibition” value is recorded as “strongest inhibitions”. Besides, the activity at 50 µM under setting [1] was 56%. Further, the activity at 100 µM under setting [2] was 28%.
On to `COc1ccc(-c2sc(C(=O)c3ccc(F)cc3F)cc2CC(=O)O)cc1` [compound 65, 2-(5-(2,4-difluorobenzoyl)-2-(4-methoxyphenyl)thiophen-3-yl)acetic acid], for which the activity at 50 µM under setting [1] is 93%. Under setting [2], the activity at 100 µM amounted to 66%.
As for `COc1ccc(-c2sc(C(=O)c3ccccc3OC)cc2CC(=O)O)cc1` [compound 69, 2-(5-(2-methoxybenzoyl)-2-(4-methoxyphenyl)thiophen-3-yl)acetic acid], the activity at 50 µM under setting [1] turned out to be 86%. Besides, under setting [2], the activity at 100 µM came to 60%.
Consider `COc1ccc(-c2sc(C(=O)CCc3ccccc3)cc2CC(=O)O)cc1` [compound 80, 2-(2-(4-methoxyphenyl)-5-(3-phenylpropanoyl)thiophen-3-yl)ace acetic acid], for which, under setting [1], the activity at 50 µM came to 83%. In addition, the activity at 100 µM under setting [2] is 67%.
The corresponding values for `COc1ccc(C(=O)c2cc(CC(=O)O)c(-c3ccc(Cl)c(Cl)c3)s2)cc1` [compound 81, 2-(2-(3,4-dichlorophenyl)-5-(4-methoxybenzoyl)thiophen-3-yl) acetic acid] are 106% and 54%.
As to `O=C([O-])Cc1cc(C(=O)c2ccco2)sc1-c1ccc(Cl)cc1.[Na+]` [compound 82, sodium 2-(2-(4-chlorophenyl)-5-(furan-2-carbonyl)thiophen-3-yl)acetate], the “HGP % of ctrl @ 50 μM” value under setting [1] was 67 % of ctrl. Moreover, the “HGP % of ctrl @ 100 μM” value under setting [2] was 26 % of ctrl.
`COc1ccc(C(=O)c2cc(CC(N)=O)c(-c3ccc(Cl)cc3)s2)cc1` [compound 86, 2-(2-(4-chlorophenyl)-5-(4-methoxybenzoyl)thiophen-3-yl)acetamide]: under setting [1], the activity at 50 µM was found to be 77%. Besides, the activity at 100 µM under setting [2] came out at 72%.
